Results published in patent US20230346831A1, “METHODS FOR TREATING […] USING LOW DOSE CARBON MONOXIDE” (priority 2020, published 2023).

What was measured:
Format in all cases: cell-based, human
[1] = system: SP1; experiment: quantitative real-time reverse transcription PCR; details: MCF7 and MDA-MB-231 cells; 250 ppm CO
Experimental: (§1) mRNA was isolated from cells (MCF7/TGL and MDA-MB-231/TGL) grown on 6-cm dishes using RNeasy mini kit (Qiagen, Hilden, Germany) containing gDNA Eliminator spin columns. cDNA was generated using the SuperScript III First-strand synthesis system with random hexamers (Invitrogen, Carlsbad, CA), and power SYBR green (Invitrogen, Carlsbad, CA)-based quantitative real-time PCR was performed using primer specific for HRG1 (human, forward: 5′- […] -3′ (SEQ ID NO: 1), reverse: 5′- […] -3′ (SEQ ID NO: 2)) or HCP1 (human forward: 5′- […] -3′ (SEQ ID NO: 3), reverse: 5′-[…] -3′ (SEQ ID NO: 4)), CYP1B1 (human, forward: 5′TGAGTGCCGTGTGTTTCGG -3′ (SEQ ID NO: 5), reverse: 5′-[…] -3′ (SEQ ID NO: 6)), SP1 (human, forward: 5′-GTGGCCGCTACCTTCACTG -3′ (SEQ ID NO: 7), reverse: 5′-GCCCCACTCCTACTTGGTC -3′ (SEQ ID NO: 8)) with the comparative CT method (ΔΔCT; ABI).
(§2) Heme is known to stimulate synthesis of many hemoproteins. Accordingly, hemoproteins whose expression was differentially regulated by low-dose CO in MCF7 and MDA-MB-231 cell lines were screened. CYP1B1, a heme-regulated protein, was identified as a top candidate in the list because of its following properties. First, CYP1B1 has been reported to induce the expression of SP1 transcription factor, and Sp1 interacts with Myc for synergistic transcriptional regulation for Myc target genes. […]

[2] = system: CYP1B1; experiment: quantitative real-time reverse transcription PCR; details: MCF7 and MDA-MB-231 cells; 250 ppm CO
Experimental: as §1, §2

[3] = system: oxygen consumption / mitochondrial respiration; experiment: Seahorse XF Cell Mito Stress Test
Description: In particular, MDA-MB-231/TGL and MCF7/TGL/PQ cells treated with carbon monoxide met their energetic needs at the same rate as untreated control cells. […] In particular, MDA-MB-231/TGL and MCF7/TGL/PQ cells treated with carbon monoxide stimulated their mitochondrial respiratory chains at the same rate as untreated control cells.
The heme group confers functionality to multiple proteins, which can include oxygen carrying, oxygen reduction, electron transfer, and other processes. To determine whether the decrease of heme levels impacts levels of oxygen-utilizing hemoproteins and therefore reduces oxygen consumption, oxygen consumption rates (OCR) was measured. However, lower OCR after 16 hours in 250 ppm CO was not detected using Seahorse XF Cell Mito Stress Tests in MCF7 and MDA-MB-231 (data not shown).

[4] = system: HiF1α; experiment: Western blot analysis; details: MCF7/TGL and MDA-MB-231/TGL cells; 250 ppm CO for 16 hours vs standard incubator
Experimental: 1.5 × 10^6 cells were seeded in 6-cm cell culture plates with DMEM containing 10% FBS, 0.2 mM L-glutamine and 1% penicillin/streptomycin. Additionally, MCF7/TGL/pQ was cultured in media containing 0.5 µgml^-1 puromycin and 25 mM HEPES. After 16 hours of incubation, cells were lysed with RIPA buffer (0.1% SDS, 1% TritonX-100, 0.5% sodium deoxycholate, 25 mM Tris pH 8.0, 150 mM NaCl, and 1 mM EDTA) supplemented with a protease inhibitor mixture and PhosSTOP (Roche, Basel, Switzerland). Proteins were quantified with Bradford assay (Bio-Rad, Hercules CA). Equal amounts of proteins were separated with SDS-PAGE and transferred to nitrocellulose membranes. […] Protein bands were visualized by enhanced chemical luminescence (Pierce, Dallas, TX).
To investigate whether 250 ppm CO induces hypoxia, HiF1α protein levels in low-dose CO-treated MCF7/TGL and MDA-MB-231/TGL cells were examined. […] To assess the intracellular heme levels affected by low-dose CO treatment, oxidized heme levels in the form of hemin (Fe^3+ state) were measured because free heme (Fe^2+ state) is readily oxidized and cannot be measured. […]

[5] = MDA-MB-231 and MCF7 cells, low dose carbon monoxide

[C-]#[O+] [CO, Carbon monoxide]
SP1 mRNA levels [1]: significantly reduced
CYP1B1 mRNA levels [2]: significantly reduced
lower oxygen consumption rates (OCR) ([3]; MCF7 and MDA-MB-231, after 16 hours in 250 ppm CO, data not shown): not detected
mitochondrial spare respiratory capacity ([3]; MDA-MB-231 and MCF7 cells, carbon monoxide treatment): improved
mitochondrial ATP production [3, 5]: did not affect
stress-induced mitochondrial maximum respiration [3, 5]: did not affect
HiF1α protein levels [4]: not changed
